Laboratory results published in patent US9593148B2, “DPP8 and DPP9 peptide inhibitors” (GEORG-AUGUST-UNIVERSITAT GOTTINGEN STIFTUNG OFFENTLICHEN …, priority 2012, dated 2017).
Like-named read-outs stand apart in the source and are kept apart here. No end group written: not given here.

Key:
DPP9 [1] = biological target: T1, DPP9 (Homo sapiens, UniProt Q86TI2); assay: Inhibition of GP-AMC hydrolysis by purified recombinant DPP9 at a single peptide concentration; format: biochemical; conditions: 25 nM DPP9, 0.2 mM GP-AMC
T1 construct: made in house; host or cells: Sf9 insect cells (baculovirus)
T1 sequence (Q86TI2 1-892 isoform Q86TI2-2): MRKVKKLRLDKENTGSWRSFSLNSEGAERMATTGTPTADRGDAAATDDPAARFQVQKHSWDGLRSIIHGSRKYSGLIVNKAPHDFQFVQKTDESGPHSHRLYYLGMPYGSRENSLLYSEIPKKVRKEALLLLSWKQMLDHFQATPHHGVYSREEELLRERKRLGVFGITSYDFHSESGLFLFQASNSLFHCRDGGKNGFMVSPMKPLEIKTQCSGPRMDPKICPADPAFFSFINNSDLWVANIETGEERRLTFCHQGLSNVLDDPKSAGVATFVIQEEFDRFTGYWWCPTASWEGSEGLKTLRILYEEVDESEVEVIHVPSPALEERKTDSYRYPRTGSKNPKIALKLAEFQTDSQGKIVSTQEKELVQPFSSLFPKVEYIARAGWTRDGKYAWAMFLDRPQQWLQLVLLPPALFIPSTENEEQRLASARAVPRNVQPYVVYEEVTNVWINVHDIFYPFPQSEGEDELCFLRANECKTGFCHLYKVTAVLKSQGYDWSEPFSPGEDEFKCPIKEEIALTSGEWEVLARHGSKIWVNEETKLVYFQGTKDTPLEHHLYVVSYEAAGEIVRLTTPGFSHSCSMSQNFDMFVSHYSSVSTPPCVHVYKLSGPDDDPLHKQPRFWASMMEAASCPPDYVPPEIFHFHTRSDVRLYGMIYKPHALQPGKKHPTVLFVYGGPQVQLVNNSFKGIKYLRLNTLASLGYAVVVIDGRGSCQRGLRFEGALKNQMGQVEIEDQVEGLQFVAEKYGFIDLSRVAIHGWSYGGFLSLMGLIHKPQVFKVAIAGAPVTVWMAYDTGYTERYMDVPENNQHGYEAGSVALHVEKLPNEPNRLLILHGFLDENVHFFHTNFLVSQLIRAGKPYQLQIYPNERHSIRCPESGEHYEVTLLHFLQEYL
Procedure: Accordingly, the peptide is capable of inhibiting the activity of wild-type DPP9 (SEQ ID NO: 6) to a level of 35 to 5% of the activity of wild-type DPP9 (SEQ ID NO: 6) if not inhibited, as determined in an assay using 25 nM purified DPP9, 0.2 mM GP-AMC, and 14 μM of the peptide to be tested, in TB buffer (20 mM Hepes/KOH pH 7.3, 110 mM potassium acetate, 2 mM Mg acetate, 0.5 mM EGTA), supplemented with 0.2% Tween-20, 1 mM dithiothreitol. Release of AMC from GP-AMC is measured using the Appliskan microplate fluorimeter (Thermo Scientific) with 380 nm (excitation) and 480 nm (emission) filters and the Skanit software, and analysed using the Prism software.
(§1) Kinetics assays: Purified recombinant DPP9 (25 nM) was incubated with varying concentrations of GP-AMC, in TB supplemented with 0.2% Tween-20, 1 mM ditiothreitol. For inhibition assays, inhibitory peptides were added directly to the reaction mixture. For activation by SUMO 0.2 mg/ml BSA, was added to the buffer to prevent non specific binding. DPP9 were incubated with 2.5 μM of either SUMO1, SUMO1 E67A, SUMO2 for 2 hour on ice prior to the assay. Alternatively DPP9 was incubated with 1 μM of RanGAP or RanGAP modified with either SUMO1 or SUMO2 for 2 hours prior to the assay. Fluorescence was measured using the Appliskan microplate fluorimeter (Thermo Scientific) with 380 nm (excitation) and 480 nm (emission) filters and the Skanit software, and analysed using the Prism software. Each experiment was performed at least three times, in replicates of four.
To improve the inhibition of DPP9, the inventors tested several peptide libraries composed of truncated variants of the EIL peptide (>80% pure, ordered from Genescript). These peptides were incubated with recombinant DPP9 and analysed GP-AMC hydrolysis. AMC release was then compared to samples containing either DPP9 alone, or the EIL peptide.

DPP9 [2] = biological target: T1, DPP9; assay: Kinetics assay, Ki for inhibition of DPP9 (GP-AMC hydrolysis); format: biochemical
Procedure: (§2) Enzyme kinetics and the Ki of DPP8 or DPP9 may be determined as follows: 25 nM purified recombinant enzyme (DPP9 or DPP8) are incubated with varying concentrations of GP-AMC ([…] GP-AMC), in TB buffer (20 mM Hepes/KOH pH 7.3, 110 mM potassium acetate, 2 mM Mg acetate, 0.5 mM EGTA), supplemented with 0.2% Tween-20, 1 mM dithiothreitol. Experiments are performed in triplicates. To measure Ki values, for each set of experiments, inhibitory peptides are added to DPP9 or DPP8. Peptide concentrations tested are in the range between 0.04 to 50 μM. Release of AMC from GP-AMC is measured using the Appliskan microplate fluorimeter (Thermo Scientific) with 380 nm (excitation) and 480 nm (emission) filters and the Skanit software, and analysed using the Prism software.
(§3) A&B 25 nM purified recombinant (A) DPP9 or (B) DPP8 were incubated with varying concentrations of the EIL peptide (0, 3.3 μM and 6.6 μM) and tested for hydrolysis of GP-AMC (1000, 500, 250, 125, 0 μM). C. 25 nM DPPIV was tested for the hydrolysis of GP-AMC (500, 250, 125, 0 μM) in the presence of 0 or 13 μM EIL peptide. Fluorescence was measured using the Appliskan microplate fluorimeter (Thermo Scientific) with 380 nm (excitation) and 480 nm (emission) filters and the Skanit software, and analysed using the Prism software. Each experiment was performed at least three times, in replicates of four.
as §1

DPP8 = biological target: T2, DPP8 (Homo sapiens, UniProt Q6V1X1); assay: Kinetics assay, Ki for inhibition of DPP8 (GP-AMC hydrolysis); format: biochemical
T2 construct: made in house; host or cells: Sf9 insect cells (baculovirus)
T2 sequence (Q6V1X1 whole entry): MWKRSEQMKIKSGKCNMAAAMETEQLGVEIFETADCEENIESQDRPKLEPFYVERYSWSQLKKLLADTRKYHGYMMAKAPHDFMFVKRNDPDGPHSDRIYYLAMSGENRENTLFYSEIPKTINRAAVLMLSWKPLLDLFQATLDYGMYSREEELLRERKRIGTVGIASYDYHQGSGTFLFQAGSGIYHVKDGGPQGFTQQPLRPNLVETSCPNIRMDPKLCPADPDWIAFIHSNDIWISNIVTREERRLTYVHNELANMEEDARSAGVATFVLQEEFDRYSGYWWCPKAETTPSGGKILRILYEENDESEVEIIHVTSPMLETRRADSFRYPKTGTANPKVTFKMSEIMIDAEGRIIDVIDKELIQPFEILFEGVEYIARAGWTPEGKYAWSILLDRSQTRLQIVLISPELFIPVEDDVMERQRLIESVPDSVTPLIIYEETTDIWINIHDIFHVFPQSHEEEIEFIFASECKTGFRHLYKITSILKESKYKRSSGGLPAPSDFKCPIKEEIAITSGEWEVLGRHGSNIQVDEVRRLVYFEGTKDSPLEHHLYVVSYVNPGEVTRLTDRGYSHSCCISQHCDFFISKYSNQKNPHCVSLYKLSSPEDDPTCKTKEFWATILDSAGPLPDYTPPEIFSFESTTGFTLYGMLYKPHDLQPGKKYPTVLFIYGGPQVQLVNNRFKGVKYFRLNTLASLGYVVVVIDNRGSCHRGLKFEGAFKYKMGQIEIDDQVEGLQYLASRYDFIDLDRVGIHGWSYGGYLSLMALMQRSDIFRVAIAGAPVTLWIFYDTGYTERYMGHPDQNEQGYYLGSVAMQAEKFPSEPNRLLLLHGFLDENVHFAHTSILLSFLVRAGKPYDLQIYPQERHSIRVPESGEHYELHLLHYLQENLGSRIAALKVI
Procedure: as §2, §3

[3] = system: cytosolic prolyl peptidase activity (HeLa cytosolic fractions); assay: GP-AMC hydrolysis in HeLa cytosolic fractions incubated with peptide; format: biochemical, human
Procedure: HeLa cytosolic fractions were incubated with 0, 27.7 or 55.6 μM peptide EIL, and immediately tested for hydrolysis of varying concentrations of A. GP-AMC or B. R-AMC. Fluorescence was measured using the Appliskan microplate fluorimeter (Thermo Scientific) with 380 nm (excitation) and 480 nm (emission) filters and the Skanit software, and analysed using the Prism software. Each experiment was performed at least three times, in replicates of four.
Since the EIL peptide can displace SUMO1 from a DPP9-SUMO1 or a DPP8-SUMO1 complex (FIG. 2D), the inventors tested whether the EIL peptide would inhibit the association-dependent activation of DPP8 and DPP9 by SUMO1 in cell extracts. For this the inventors incubated cytosolic extracts with the EIL peptide and tested for the hydrolysis of GP-AMC (FIG. 8A). […] For control, the inventors also measured the hydrolysis of R-AMC, which is not a substrate for DPP8 or DPP9 (FIG. 8B).

DPPIV = DPPIV (Homo sapiens, UniProt P27487); assay: GP-AMC hydrolysis by DPPIV in the presence of peptide; format: biochemical; conditions: 25 nM DPPIV, 13 μM peptide
DPPIV, sequence (P27487 whole entry): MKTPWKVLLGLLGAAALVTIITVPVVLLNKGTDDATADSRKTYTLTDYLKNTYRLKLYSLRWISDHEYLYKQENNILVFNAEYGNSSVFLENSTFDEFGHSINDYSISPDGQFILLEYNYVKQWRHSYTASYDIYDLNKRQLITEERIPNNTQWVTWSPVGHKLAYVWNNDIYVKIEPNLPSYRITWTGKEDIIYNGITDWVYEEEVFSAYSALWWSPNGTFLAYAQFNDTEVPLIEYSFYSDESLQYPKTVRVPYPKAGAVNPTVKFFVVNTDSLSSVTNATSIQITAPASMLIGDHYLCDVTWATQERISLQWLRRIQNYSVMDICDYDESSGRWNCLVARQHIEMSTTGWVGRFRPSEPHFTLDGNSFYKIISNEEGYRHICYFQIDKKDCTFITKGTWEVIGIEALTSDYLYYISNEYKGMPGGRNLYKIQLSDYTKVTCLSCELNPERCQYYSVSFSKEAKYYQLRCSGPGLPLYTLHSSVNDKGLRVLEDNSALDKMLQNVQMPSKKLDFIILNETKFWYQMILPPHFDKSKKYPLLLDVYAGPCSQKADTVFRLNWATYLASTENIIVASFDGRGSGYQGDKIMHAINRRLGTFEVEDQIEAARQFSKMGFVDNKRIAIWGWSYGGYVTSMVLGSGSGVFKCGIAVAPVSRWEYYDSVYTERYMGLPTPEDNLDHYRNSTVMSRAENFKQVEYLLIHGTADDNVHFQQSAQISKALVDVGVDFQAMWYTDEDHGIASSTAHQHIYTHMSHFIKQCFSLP
Procedure: Preferably, the peptide is capable of inhibiting the activity by wild-type DPP9 (SEQ ID NO: 6) to a level of 30 to 5%, 29 to 5%, 28 to 5%, 27 to 5%, 26 to 5%, 25 to 5%, 24 to 5%, 23 to 5%, 22 to 5%, 21 to 5%, 20 to 5%, 19 to 5%, 18 to 5%, 17 to 5%, 16 to 5%, 15 to 5%, 14 to 5%, 13 to 5%, 12 to 5%, 11 to 5%, 10 to 5%, 9 to 5%, 8 to 5%, such as 7.5 to 5% of the activity of wild-type DPP9 (SEQ ID NO: 6) if not inhibited. […] Release of AMC from GP-AMC is measured using the Appliskan microplate fluorimeter (Thermo Scientific) with 380 nm (excitation) and 480 nm (emission) filters and the Skanit software, and analysed using the Prism software.
as §3

DPP9-SUMO1 interaction = biological target: T3, DPP9-SUMO1 interaction (Homo sapiens, UniProt Q86TI2); assay: Peptide competition of DPP9 binding to SUMO1-immobilized beads (pull down); conditions: 500 ng recombinant DPP9, peptide 0.1 mg/ml
T3 construct: made in house; host or cells: DPP9: Sf9 insect cells
T3 sequence (Q86TI2 1-892 isoform Q86TI2-2): as the sequence (Q86TI2 1-892 isoform Q86TI2-2) above
Procedure: Ovalbumin (Ov) coupled beads were used for control. Bound proteins were detected by western blotting using specific antibodies. B. Shown is a pull down assay as in A with recombinant DPP9, DPP8, Uba2 or GST-PIAS3. C. Recombinant DPP9 was incubated with 15 mer peptides of a peptide library covering SUMO1 amino acid sequence. The DPP9-peptide solutions were then incubated with SUMO1-immobilized beads. Following extensive washing steps, bound DPP9 was eluted with sample buffer and detected DPP9-specific antibodies. D. Recombinant DPP8 and DPP9 were incubated with SUMO1-immobilized beads. To elute bound proteins, beads were incubated with either SUMO1-peptide 5 (overlapping SIG) or with SUMO1-peptide 9. […] Interacting DPP9 was detected using a DPP9 specific antibody. […] Interacting proteins were eluted with sample buffer and detected using specific antibodies. […]
To study the preferential association of DPP8 and DPP9 with SUMO1 but not SUMO2, the inventors aimed to identify the surfaces on SUMO1 involved in these interactions. First the inventors analysed the interaction of DPP9 with SUMO1 mutants in residues which were previously shown via NMR and crystal structures to interact with SIM containing proteins (Song et al, 2004; Hecker et al, 2006; Reverter & Lima, 2005). […] SUMO1-peptides 5 or 9 were then added and the release of bound DPP8 or DPP9 from the SUMO beads was analysed by SDS-PAGE (FIG. 2D). […]

[4] = 10 μM peptide, DPP9 alone = 100.3
[5] = 14 μM peptide, no peptide = 100
[6] = 25 nM DPP9, 0, 5 or 20 μM peptide, GP-AMC 0-500 μM, read-out: Ki (μM) for inhibition of DPP9

Substance	% DPP9 activity (Mean) (DPP9 [1]; [4])	% DPP9 activity (Mean) (DPP9 [1]; [5])	other results
Acet-SLRFLFEG	90.74%		
H-SLRFLYEGQRIADNH		13.06%	Ki (DPP9 [2]; [6]): 2.56 µM
SLRFLFEAQRIADNH (LRFLFEGQRIADNH; EIL peptide variant)		19.46%	
H-SLRFLFAGQRIADNH		5.093%	Ki (DPP9 [2]; [6]): 1.43 µM
RRRRSLRFLFEG (RRRRSLRFLYAG; EIL variant peptide)	92.2%		
FLFEGQRI (EIL peptide variant)		48.41%	
SLRFLFEGQRIADNH			Ki (DPP9 [2]; [6]): 7.32 µM; Ki (DPP9 [2]; read-out: Ki for DPP9): 7.4 µM; Ki (DPP8): 8.4 µM; stability of the peptide in cytosolic extracts ([3]; HeLa cytosolic extracts): stable in cytosolic extracts
SLRFLFEGQR (EIL peptide variant)		24.27%	
H-SLRFLFEG	24.08%		Ki (DPP9 [2]; [6]): 2 µM
LFEGQR (FLIEGQRI; EIL peptide variant)		51%	
AAASLRFLYEG (SLRFLYEGAAA; EIL variant peptide)	91.15%		
TLRFLFEG (SLRFLFEG; EIL variant peptide)	29.2%		
H-SLRFLFEGQRIADNH		27.45%	inhibition of DPPIV (DPPIV): not inhibited; degradation of GP-AMC in cytosolic extracts ([3]; HeLa cytosolic fractions, 0, 27.7 or 55.6 μM peptide): strongly reduced; binding of DPP9 to the SUMO1 beads after pre-incubation with peptide (DPP9-SUMO1 interaction): strongly reduced
SLRFLFEGQ (LRFLFEGQRIADN; EIL peptide variant)		16.43%	
LFEGQRIADNH (EIL peptide variant)		67.77%	
FEGQRIADNH (SLRFLFEGQRIAD; EIL peptide variant)		97.12%	
